Test results as given in article PMC12299477 (Viruses, 2025).
pEC50: −log10 of the molar value.

How the values were obtained:
[1] = Cell viability MTS assay on MRC-5 cells; assay type: cell-based; conditions: human, same conditions as HCoV inhibition assay, read-out: CC50 (µM) (95% CI)
[2] = tested on: RSV-B; test: Virus inhibition assay, RSV strain B WV/14617/85 on Hep-2 cells; assay type: cell-based; conditions: human respiratory syncytial virus; RSV B WV/14617/85, Hep-2 cells; read-out: EC50 (µM) (95% CI)
[3] = tested on: RSV-A2; test: Virus inactivation (virucidal) assay, RSV-A2; assay type: cell-based, respiratory syncytial virus; conditions: EC90 dose, 2 h incubation with 200,000 PFUs
[4] = tested on: HCoV-OC43; test: Virus inactivation (virucidal) assay, HCoV-OC43; assay type: cell-based, human coronavirus; conditions: EC90 dose, 2 h incubation with 200,000 FFUs
[5] = tested on: HCoV-OC43; test: Virus inhibition assay (focus reduction), HCoV-OC43 on MRC-5 cells; assay type: cell-based, human coronavirus; conditions: Betacoronavirus 1, OC43, MRC5, read-out: EC50 (µM) (95% CI)
[6] = tested on: IFV-A H3N2; test: Virus inhibition assay, IFV-A H3N2 on MDCK cells; assay type: cell-based; conditions: Influenza A virus, read-out: EC50 (µM) (95% CI)
[7] = Cell viability MTS assay on MDCK cells; conditions: dog
[8] = tested on: human bronchial epithelium (MucilAir); test: LDH cytotoxicity assay on 3D human bronchial epithelium; assay type: cell-based; conditions: 6 µM and 12 µM, harvested daily up to 72 h
[9] = tested on: HCoV-OC43; test: Virus inhibition assay, HCoV-OC43 on A549 cells; assay type: cell-based, human coronavirus; conditions: Betacoronavirus 1, read-out: EC50 (µM) (95% CI)
[10] = tested on: RSV-A2; test: Immunofluorescence of dsRNA and viral protein, RSV-A2 in Hep-2 cells; assay type: cell-based, respiratory syncytial virus; conditions: EC50 (2µM) or 2-fold EC90 dose (30µM), 24h post-infection
[11] = tested on: IFV-B; test: Virus inhibition assay, IFV-B on MDCK cells; assay type: cell-based; conditions: unidentified influenza virus, read-out: EC50 (µM) (95% CI)
[12] = tested on: Hep-2 cells; test: Cytotoxic effect microscopically visible in the RSV-A2 screening; assay type: cell-based, human; set-up: key: -: Cytotoxic effect microscopically visible; conditions: 33 µM
[13] = tested on: RSV-A2; test: Virus inhibition assay, RSV-A2 on A549 cells; assay type: cell-based; conditions: human respiratory syncytial virus, read-out: EC50 (µM) (95% CI)
[14] = Cell viability MTS assay on Hep-2 cells; conditions: human
[15] = tested on: RSV-A2; test: Anti-RSV activity on a 3D model of human bronchial epithelium; assay type: cell-based, respiratory syncytial virus; conditions: for Reduction in RSV progeny: 72 h post-infection, 10,000 PFUs
[16] = tested on: RSV-A2; test: Time-of-addition assay, RSV-A2; assay type: cell-based, respiratory syncytial virus
[17] = tested on: IFV-A H1N1; test: Virus inhibition assay (focus reduction), IFV-A H1N1 on MDCK cells; assay type: cell-based; conditions: Influenza A virus, read-out: EC50 (µM) (95% CI)
[18] = in vitro; conditions: human
[19] = tested on: HCoV-229E; test: Virus inhibition assay, HCoV-229E on MRC-5 cells; assay type: cell-based; conditions: Human coronavirus 229E, MRC5, read-out: EC50 (µM) (95% CI)
[20] = tested on: RSV-A2; test: Virus inhibition assay (plaque reduction), RSV-A2 on Hep-2 cells; assay type: cell-based; conditions: human respiratory syncytial virus; RSV-A2, Hep-2 cells; read-out: EC50 (µM) (95% CI)
[21] = tested on: HCoV-OC43; test: Time-of-addition assay, HCoV-OC43; assay type: cell-based, human coronavirus; conditions: for pEC50: Betacoronavirus 1, HCoV-OC43
[22] = tested on: IFV-A H1N1; test: Virus inhibition assay, IFV-A H1N1 on A549 cells; assay type: cell-based; conditions: Influenza A virus, read-out: EC50 (µM) (95% CI)

For `CC(C)(CC(=O)O)NC(=O)c1cc(-c2ccccc2)c(=O)n2c1sc1ccc(OC3CCCCC3)cc12` [Compound 1], the CC50 [1] was 59.6 µM, the EC50 [2] was 4.23 µM and the “Virucidal activity on extracellular RSV particle” value [3] was “did not directly inactivate”. The “Virucidal activity: HCoV-OC43 titer” value [4] was “modest—although negligible—reduction”, the EC50 [5] was 4.83 µM and the EC50 [6] was 5.96 µM. The CC50 [7] was 41.1 µM, the “Cytotoxic effect on the epithelia (LDH assay on basal media)” value [8] was “did not exert any cytotoxic effect” and the EC50 [9] was 8.14 µM. The “Effect on nucleic acid replication and viral protein production of RSV-A2” value [10] was “did not inhibit”, the EC50 [11] was 4.21 µM and the “Cytotoxic effect microscopically visible” value [12] was “- ^a”. The EC50 [13] was 7.78 µM, the CC50 [14] was 61.3 µM and the “Reduction in RSV progeny” value ([15]; 6 µM every 24 h) was 1.1 log. The “Reduction in RSV progeny” value ([15]; 12 µM every 24 h) was 1.5 log, the “Morphology of the bronchial epithelial cells in infected treated sample” value ([15]; brightfield images, compared to infected untreated) was “sufficiently preserved” and the “Anti-RSV immunopositivity of the epithelia” value ([15]; end of experiment, immunofluorescence) was “reduction in immunopositivity”. The “Activity against RSV, pre-treatment” value ([16]; compound added 2 h before infection) was “not active”, the “Activity against RSV, co-treatment” value ([16]; compound added with virus inoculum, first 2 h of infection) was “not active” and the pEC50 ([16]; human respiratory syncytial virus, RSV, treated 72 h after removal of viral inoculum, read-out: EC50, post-treatment) was 5.09. For the same compound, the EC50 [17] was 5.49 µM, the CC50 [18] was 57.6 µM and the CC50 ([18]; CC50 (µM) (95% CI), A549 cells, HCoV OC43 assay conditions) was 150 µM. For the same compound, the CC50 ([18]; CC50 (µM) (95% CI), A549 cells, RSV A2 assay conditions) was 30.8 µM, the EC50 [19] was 45.3 µM and the EC50 [20] was 1.3 µM. The pEC50 ([21]; after infection, read-out: EC50, post-treatment) was 5.12, the pEC50 ([21]; during infection, read-out: EC50, co-treatment) was 4.79 and the “Activity against HCoV-OC43, treatment before the infection” value ([21]; pre-treatment) was “did not exert inhibitory activity”. The EC50 [22] was 6.29 µM.
